According to patent publication US8415469B2, “Compounds and methods for kinase modulation, and indications therefor” (Plexxikon Inc., priority 2005, dated 2013):

What was measured:
Format in all cases: biochemical
PKC theta = biological target: T1, PKC theta (Homo sapiens, UniProt Q04759); assay: Z'-Lyte FRET kinase assay (Invitrogen), PKC theta; conditions: read-out: IC50, activity toward kinase PKC theta
T1 construct: purchased Invitrogen (Carlsbad, Calif.), screening service
In short: (§1)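 Serially diluted compound (1% DMSO final) is mixed with kinase plus 2 μM peptide substrate in pH 7.5 HEPES buffer, then ATP is added to 10 μM. After 1 h at room temperature, site-specific protease is added for another hour, reactions are stopped and fluorescence ratio measured.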

Src = biological target: T2, Src (Homo sapiens, UniProt P12931); assay: AlphaScreen kinase assay, Src; conditions: read-out: IC50, activity toward kinase Src
T2 construct: P1144. pET-N6 BI-PTP SRC V86-L536-X; made in house

Stk6 = biological target: T3, Stk6 (Homo sapiens, UniProt O14965); assay: Z'-Lyte FRET kinase assay (Invitrogen), Stk6; conditions: read-out: IC50, activity toward kinase Stk6
T3 construct: purchased Invitrogen (Carlsbad, Calif.), screening service
T3 sequence (O14965 1-403): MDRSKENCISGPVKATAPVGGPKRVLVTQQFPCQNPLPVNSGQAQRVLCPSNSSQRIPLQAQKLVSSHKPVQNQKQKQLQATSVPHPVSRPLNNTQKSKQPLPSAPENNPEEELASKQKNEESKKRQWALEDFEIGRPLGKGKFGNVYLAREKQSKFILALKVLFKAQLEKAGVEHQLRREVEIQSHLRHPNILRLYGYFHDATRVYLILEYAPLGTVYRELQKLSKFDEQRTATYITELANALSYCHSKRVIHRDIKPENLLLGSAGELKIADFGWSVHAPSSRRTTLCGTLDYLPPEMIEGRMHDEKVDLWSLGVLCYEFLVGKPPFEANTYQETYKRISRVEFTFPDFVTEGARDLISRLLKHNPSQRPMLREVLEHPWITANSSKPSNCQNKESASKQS

Jnk1 = biological target: T4, Jnk1 (Homo sapiens, UniProt P45983); assay: AlphaScreen kinase assay, Jnk1; conditions: read-out: IC50, activity toward kinase Jnk1
T4 construct: purchased Upstate Biotechnology
Source text: AlphaScreen assay was used to screen additional kinases. The assay is similarly dependent on the phosphorylation of a peptide substrate. In this assay, an antibody that recognizes phosphorylated substrate is bound to an acceptor bead. The peptide substrate is attached to biotin, which binds to a donor head that contains streptavidin. Thus phosphorylated substrate is bound by antibody and streptavidin, bringing the donor and acceptor heads into close proximity when kinase is not inhibited. The donor produces singlet oxygen which results in emission from the acceptor when they are in close proximity. Conversely, when kinase is inhibited, the donor and acceptor beads are not associated and the emission from the acceptor is reduced.
AlphaScreen assays were done using compounds dissolved in DMSO to a concentration of 20 mM. The compounds were diluted accordingly to the desired final concentrations in each sample well, using 1:3 serial dilution for a total of 8 concentration points. Plates were prepared such that each kinase reaction is 20 μl in 1× kinase buffer, 5% DMSO and 10 μM ATP. After incubation of the kinase reaction for 1 hour at room temperature, 5 μl of donor beads in stop buffer (50 mM EDTA in 1× kinase buffer) was added, the sample was mixed and incubated for 20 minutes at room temperature before adding 5 μl of acceptor beads in stop buffer. The samples were incubated for 60 minutes at room temperature and the signal per well was read on AlphaQuest reader.

EphB2 = biological target: T5, EphB2 (Homo sapiens, UniProt P29323); assay: Z'-Lyte FRET kinase assay (Invitrogen), EphB2; conditions: read-out: IC50, activity toward kinase EphB2
T5 construct: purchased Invitrogen (assay run by Invitrogen)
T5 sequence (P29323 19-1055): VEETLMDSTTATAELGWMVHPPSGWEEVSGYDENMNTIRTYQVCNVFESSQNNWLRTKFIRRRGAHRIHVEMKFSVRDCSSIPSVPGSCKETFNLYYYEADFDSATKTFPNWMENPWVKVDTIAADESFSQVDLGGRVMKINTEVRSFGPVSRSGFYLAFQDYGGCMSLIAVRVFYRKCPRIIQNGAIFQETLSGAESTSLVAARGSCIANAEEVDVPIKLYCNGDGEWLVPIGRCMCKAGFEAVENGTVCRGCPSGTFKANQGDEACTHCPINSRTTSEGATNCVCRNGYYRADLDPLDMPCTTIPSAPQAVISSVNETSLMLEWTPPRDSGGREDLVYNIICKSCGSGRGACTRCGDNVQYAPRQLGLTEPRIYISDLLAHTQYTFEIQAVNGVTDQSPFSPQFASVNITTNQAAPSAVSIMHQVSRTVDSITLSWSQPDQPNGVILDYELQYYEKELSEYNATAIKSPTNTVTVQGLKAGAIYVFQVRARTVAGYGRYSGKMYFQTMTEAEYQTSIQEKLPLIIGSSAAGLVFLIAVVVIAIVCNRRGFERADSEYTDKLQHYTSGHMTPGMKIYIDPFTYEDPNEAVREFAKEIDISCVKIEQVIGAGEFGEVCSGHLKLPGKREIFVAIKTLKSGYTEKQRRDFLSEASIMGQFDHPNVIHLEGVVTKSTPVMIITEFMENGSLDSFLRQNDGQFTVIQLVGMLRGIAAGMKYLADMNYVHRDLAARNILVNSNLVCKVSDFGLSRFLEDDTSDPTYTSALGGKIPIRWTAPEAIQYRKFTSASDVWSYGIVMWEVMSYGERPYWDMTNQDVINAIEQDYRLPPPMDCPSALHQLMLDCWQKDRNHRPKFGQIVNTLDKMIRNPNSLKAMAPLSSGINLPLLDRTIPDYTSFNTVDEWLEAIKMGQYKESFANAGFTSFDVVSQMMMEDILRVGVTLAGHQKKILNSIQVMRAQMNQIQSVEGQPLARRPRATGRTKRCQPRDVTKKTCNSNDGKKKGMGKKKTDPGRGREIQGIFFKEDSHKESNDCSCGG
In short: as §1

Btk = biological target: T6, Btk (Homo sapiens, UniProt Q06187); assay: Z'-Lyte FRET kinase assay (Invitrogen), Btk; conditions: read-out: IC50, activity toward kinase Btk
T6 construct: purchased Invitrogen (assay run by Invitrogen)

Measured: IC50

T4 sequence (P45983 whole entry): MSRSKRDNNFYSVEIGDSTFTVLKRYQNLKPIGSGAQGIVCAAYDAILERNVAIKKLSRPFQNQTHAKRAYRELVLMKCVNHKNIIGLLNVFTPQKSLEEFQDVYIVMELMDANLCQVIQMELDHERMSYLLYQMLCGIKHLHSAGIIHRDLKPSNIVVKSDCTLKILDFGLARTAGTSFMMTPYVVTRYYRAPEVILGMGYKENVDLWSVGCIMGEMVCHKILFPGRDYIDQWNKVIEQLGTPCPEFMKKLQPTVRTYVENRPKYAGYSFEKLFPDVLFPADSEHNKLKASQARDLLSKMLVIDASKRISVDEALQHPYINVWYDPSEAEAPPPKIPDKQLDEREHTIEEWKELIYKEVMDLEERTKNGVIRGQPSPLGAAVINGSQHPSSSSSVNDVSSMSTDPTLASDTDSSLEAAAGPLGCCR
T2 sequence (P12931 with tags, fused parts or gaps): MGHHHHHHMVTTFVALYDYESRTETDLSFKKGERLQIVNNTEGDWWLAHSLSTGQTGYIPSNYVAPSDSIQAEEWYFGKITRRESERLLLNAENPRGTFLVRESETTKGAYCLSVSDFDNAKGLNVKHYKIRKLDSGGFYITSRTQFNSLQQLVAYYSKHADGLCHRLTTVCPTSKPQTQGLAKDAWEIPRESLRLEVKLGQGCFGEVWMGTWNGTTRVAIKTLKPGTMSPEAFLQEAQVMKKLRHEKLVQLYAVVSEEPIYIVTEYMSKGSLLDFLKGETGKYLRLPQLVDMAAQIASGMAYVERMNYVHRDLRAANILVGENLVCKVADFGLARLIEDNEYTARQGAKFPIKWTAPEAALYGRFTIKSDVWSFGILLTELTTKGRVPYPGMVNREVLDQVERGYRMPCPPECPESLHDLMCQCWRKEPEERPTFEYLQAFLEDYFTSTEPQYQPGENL
T1 sequence (Q04759 whole entry): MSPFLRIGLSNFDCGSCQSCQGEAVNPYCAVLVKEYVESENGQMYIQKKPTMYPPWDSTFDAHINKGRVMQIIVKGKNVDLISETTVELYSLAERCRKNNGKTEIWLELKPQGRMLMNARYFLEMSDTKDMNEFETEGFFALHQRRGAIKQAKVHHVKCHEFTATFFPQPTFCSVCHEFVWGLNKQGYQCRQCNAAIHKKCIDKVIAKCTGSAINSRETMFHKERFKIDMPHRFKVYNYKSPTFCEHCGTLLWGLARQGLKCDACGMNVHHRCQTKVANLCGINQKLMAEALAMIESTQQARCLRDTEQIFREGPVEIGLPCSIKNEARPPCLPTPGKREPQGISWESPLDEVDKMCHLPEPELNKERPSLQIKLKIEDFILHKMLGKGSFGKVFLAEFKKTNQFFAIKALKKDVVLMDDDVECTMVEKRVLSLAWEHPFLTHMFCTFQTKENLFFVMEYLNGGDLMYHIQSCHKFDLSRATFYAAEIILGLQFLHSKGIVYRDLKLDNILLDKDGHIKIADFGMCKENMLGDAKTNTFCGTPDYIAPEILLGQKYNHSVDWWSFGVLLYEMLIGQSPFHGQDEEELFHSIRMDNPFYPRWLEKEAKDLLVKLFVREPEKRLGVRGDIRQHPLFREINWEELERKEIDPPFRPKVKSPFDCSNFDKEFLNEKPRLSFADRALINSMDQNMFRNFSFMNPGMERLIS
T6 sequence (Q06187 whole entry): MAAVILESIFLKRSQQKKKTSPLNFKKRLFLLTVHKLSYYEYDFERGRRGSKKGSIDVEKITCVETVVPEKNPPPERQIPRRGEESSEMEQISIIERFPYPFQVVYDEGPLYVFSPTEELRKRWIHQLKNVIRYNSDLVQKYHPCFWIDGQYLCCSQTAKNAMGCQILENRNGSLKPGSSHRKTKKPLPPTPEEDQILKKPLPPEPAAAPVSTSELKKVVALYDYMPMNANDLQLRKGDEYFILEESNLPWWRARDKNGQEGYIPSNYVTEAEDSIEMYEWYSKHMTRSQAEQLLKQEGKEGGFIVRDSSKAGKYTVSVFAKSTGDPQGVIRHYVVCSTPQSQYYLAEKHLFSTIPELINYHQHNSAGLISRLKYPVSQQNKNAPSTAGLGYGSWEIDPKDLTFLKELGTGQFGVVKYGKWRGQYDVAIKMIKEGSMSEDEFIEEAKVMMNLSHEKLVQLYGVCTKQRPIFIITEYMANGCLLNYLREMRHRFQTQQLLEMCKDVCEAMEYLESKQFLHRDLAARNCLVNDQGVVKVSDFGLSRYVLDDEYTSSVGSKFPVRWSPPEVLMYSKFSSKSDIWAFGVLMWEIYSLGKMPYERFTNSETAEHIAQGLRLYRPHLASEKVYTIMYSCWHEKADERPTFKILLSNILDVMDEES

Nc1cccc(-c2cnc3[nH]cc(C(=O)c4cc(O)ccc4F)c3c2)c1 [Compound P-0002]
≤ 10 µM: PKC theta | Src | Stk6 | Jnk1

Nc1cccc(-c2cnc3[nH]cc(C(=O)c4cccc(O)c4F)c3c2)c1 [Compound P-0004, [5-(3-amino-phenyl)-1H-pyrrolo[2,3-b]pyridin-3-yl]-(2-fluoro-3-hydroxy-phenyl)methanone]
≤ 10 µM: PKC theta | Src | Jnk1

O=C(c1cc(O)ccc1F)c1c[nH]c2ncccc12 [Compound P-0005]
≤ 10 µM: EphB2 | Src | Btk

CCCS(=O)(=O)Nc1ccc(F)c(C(=O)c2c[nH]c3ncccc23)c1F [Compound P-0007, Propane-1-sulfonic acid [2,4-difluoro-3-(1H-pyrrolo[2,3-b]pyridine-3-carbonyl)-phenyl]-amide]
≤ 10 µM: EphB2 | Src | Stk6 | Btk

Oc1ccc(F)c(C(O)c2c[nH]c3ncc(-c4cccnc4)cc23)c1F (stereo not drawn) [Compound P-0009, 2,4-difluoro-3-[hydroxy-(5-pyridin-3-yl-1H-pyrrolo[2,3-b]pyridin-3-yl)-methyl]-phenol]
not listed: PKC theta
≤ 10 µM: all other assays above

O=C(O)/C=C/c1cccc(-c2cnc3[nH]cc(C(=O)c4cc(O)ccc4F)c3c2)c1 [Compound P-0010]
not listed: PKC theta
≤ 10 µM: all other assays above

COc1ccc(C(=O)c2c[nH]c3ncc(-c4cccc(/C=C/C(=O)O)c4)cc23)c(Cl)c1 [Compound P-0015]
≤ 10 µM: EphB2 | Stk6 | Btk | Jnk1

Cc1c(O)cccc1C(=O)c1c[nH]c2ncc(-c3ccccc3)cc12 [Compound P-0016, (3-Hydroxy-2-methyl-phenyl)-(5-phenyl-1H-pyrrolo[2,3b]pyridin-3-yl)-methanone]
≤ 10 µM: EphB2 | Src | Btk | Jnk1

O=C(c1cccc(O)c1F)c1c[nH]c2ncc(-c3cccnc3)cc12 [Compound P-0027, (2-Fluoro-3-hydroxy-phenyl)-(5-pyridin-3-yl-1H-pyrrolo[2,3-b]pyridin-3-yl)-methanone]
≤ 10 µM: EphB2 | Src | Btk | Jnk1

Cc1ccc(F)cc1C(=O)c1c[nH]c2ncc(-c3cccc(NS(C)(=O)=O)c3)cc12 [Compound P-0028]
≤ 10 µM: EphB2 | Src | Btk

Nc1ccnc2[nH]cc(C(=O)c3ccccc3)c12 [Compound P-0029]
≤ 10 µM: EphB2 | Stk6 | Btk

O=C(O)/C=C/c1cccc(-c2cnc3[nH]cc(C(=O)c4ccccc4F)c3c2)c1 [Compound P-0033]
≤ 10 µM: EphB2 | Stk6 | Btk | Jnk1

O=C(c1cccc(O)c1)c1c[nH]c2nccc(-c3cc(F)cc(F)c3)c12 [Compound P-0039]
≤ 10 µM: PKC theta

Cc1ccc(F)cc1C(=O)c1c[nH]c2ncc(-c3cccc(N)c3)cc12 [Compound P-0040]
not listed: PKC theta
≤ 10 µM: all other assays above

Cn1cc(C(F)(F)F)c(-c2ccc(S(=O)(=O)NCc3c[nH]c4ncccc34)s2)n1 [Compound P-0041]
≤ 10 µM: EphB2 | Src | Stk6 | Btk

O=C(c1cc(O)ccc1F)c1c[nH]c2ncc(-c3ccccc3)cc12 [Compound P-0045]
not listed: PKC theta
≤ 10 µM: all other assays above

Oc1cccc(Cc2c[nH]c3ncc(-c4cccs4)cc23)c1F [Compound P-0052, 2-Fluoro-3-(5-thiophen-2-yl-1H-pyrrolo[2,3-b]pyridin-3-ylmethyl)-phenol]
≤ 10 µM: EphB2 | Stk6 | Btk | Jnk1

O=C(c1cccc(O)c1F)c1c[nH]c2ncc(Br)cc12 [Compound P-0067, (5-bromo-1H-pyrrolo[2,3-b]pyridin-3-yl)-(2-fluoro-3-hydroxy-phenyl)-methanone]
≤ 10 µM: EphB2 | Src | Btk

O=C(c1cc(O)ccc1F)c1c[nH]c2ncc(Br)cc12 [Compound P-0068, (5-Bromo-1H-pyrrolo[2,3-b]pyridin-3-yl)-(2-fluoro-5-hydroxy-phenyl)-methanone]
≤ 10 µM: EphB2 | Src | Btk

Cc1ccc(S(=O)(=O)NCc2c[nH]c3nccc(-c4cccc(C#N)c4)c23)cc1 [Compound P-0072]
≤ 10 µM: EphB2 | Src | Btk

CCCS(=O)(=O)Nc1ccc(F)c(C(=O)c2c[nH]c3ncc(-c4cccnc4)cc23)c1F [Compound P-0088, Propane-1-sulfonic acid [2,4-difluoro-3-(5-pyridin-3-yl-1H-pyrrolo[2,3-b]pyridine-3-carbonyl)-phenyl]-amide]
not listed: PKC theta
≤ 10 µM: all other assays above

COc1ccc(F)c(C(=O)c2c[nH]c3ncc(-c4cccnc4)cc23)c1 [Compound P-0090]
≤ 10 µM: EphB2 | Src | Btk | Jnk1

Oc1cc(O)cc(Cc2c[nH]c3ncc(-c4ccsc4)cc23)c1 [Compound P-0093]
≤ 10 µM: EphB2 | Stk6 | Btk

CS(=O)(=O)c1cccc(-c2cnc3[nH]cc(C(=O)c4c(F)ccc(F)c4F)c3c2)c1 [Compound P-0102, [5-(3-Methanesulfonyl-phenyl)-1H-pyrrolo[2,3-b]pyridin-3-yl]-(2,3,6-trifluoro-phenyl)-methanone]
≤ 10 µM: EphB2 | Src | Btk | Jnk1
